Reference: patent publication US20040152650A1, “Preventing ischemia-induced cell damage” (priority 2002, published 2004)

Tests used:
[1] = test system: cardiac myocytes; test: DNA fragmentation in cardiac myocytes subjected to hypoxia-acidosis; type: cell-based, rat; conditions: for Fragmentation of cardiac myocyte DNA by hypoxia-acidosis with MPTP inhibitor: 48 h time point, DUB 200 μM; for protection against DNA fragmentation with MPTP inhibitor: after 72 h hypoxia-acidosis
Experimental: Cardiac Myocyte Culture and Hypoxia. Methods utilized for the isolation and culture of primary neonatal rat cardiac myocytes and exposure to hypoxia have been described previously (28;29). Experiments were performed in defined serum-free DMEM/M-199 (4:1) medium. Oxygen was continuously monitored and maintained at <10 mm Hg.
(§1) Quantitative Analysis of Apoptosis. Cells were examined for morphologic evidence of apoptosis or necrosis by staining with anti-myosin antibody and the fluorescent DNA-binding dyes Hoechst 33342 and propidium iodide (PI), exactly as previously described (26;30). Genomic DNA fragmentation analyses were also as described previously (26;30).
Antisense. Antisense oligonucleotides were complementary to bases 10-40 and 600-630 of the BNIP3 gene; sequences 5′[…] (SEQ ID NO:1) and 5′[…] (SEQ ID NO:2) respectively. Random sequence oligonucleotides contained the same bases in a scrambled sequence. FITC-tagged oligonucleotides (2 μM final of each) in DMEM were mixed with lipofectamine (0.1 μg/ml, final concentration) and incubated with cardiac myocytes at 37° C. for 8 hours before treatments. Immediately before exposing to hypoxia, fresh medium with oligonucleotides was added. Fluorescence was visualized after 24, 36, and 48 hrs of exposure to hypoxia. Fresh oligonucleotides (400 nM) were added at 24 and 36 hrs.

[2] = test system: cardiac myocytes; test: Peptide protection against hypoxia-acidosis death (DNA fragmentation analyses); type: cell-based, rat; conditions: peptide 10 PM (20 μg/ml); for protection against hypoxia-acidosis death: 24-48 h hypoxia with acid accumulation; for protection (quantitative DNA fragmentation analyses): n=3
Experimental: as §1
Peptides were added to cardiac myocyte cultures at a concentration of 10 PM (20 μg/ml) in serum-free defined medium (DMEM/high glucose/TIB) as described previously (26). Control cultures contained 20 μg/ml BSA. Cultures were exposed to 24-48 h of hypoxia with acid accumulation, also as described previously (26). The results using peptide 1 (23 aa N-BNIP3) are shown in FIG. 7 (−is control +is with peptide treatment).

| Molecule | Fragmentation of cardiac myocyte DNA by hypoxia-acidosis with MPTP inhibitor [1] | protection against DNA fragmentation with MPTP inhibitor [1] | protection against hypoxia-acidosis death [2] | protection (quantitative DNA fragmentation analyses) ([2]; 24 h hypoxia with acid accumulation) [%] | protection (quantitative DNA fragmentation analyses) ([2]; 48 h hypoxia with acid accumulation) [%] |
| --- | --- | --- | --- | --- | --- |
| CO[C@H](C/C=C\C=C\CC/C=C/C[C@H](C)/C=C/C(=C\C(=O)O)CC(=O)O)/C(C)=C\C=C(/C)C(=O)O [BA, bongrekic acid] | blocked | mediated protection |  |  |  |
| CCCCCCCCCCC1=C(C)C(=O)C(OC)=C(OC)C1=O [DUB, decylubiquinone] | blocked | mediated protection |  |  |  |
| GRKKRRQRRRPPQC-----MSQSGEENLQGSWVELHFSNGNG-(C-term) (GRKKRRQRRRPPQCMSQSGEENLQGSWVELHFSNGNG; Synthetic Peptide Fragments) [Peptide 1, TAT-peptide containing N-terminal amino acids 1-23 of BNIP3] |  |  | strong and significant protection | > 50 | > 50 |
| GRKKRRQRRRPPQC----GDMEKILLDAQHESGRSSKSSHCDSP-(C-term) (GRKKRRQRRRPPQCGDMEKILLDAQHESGRSSKSSHCDSP; Synthetic Peptide Fragments) [Peptide 2, TAT-peptide containing N-terminal amino acids 24-49 of BNIP3] |  |  | less effective |  |  |
